Source: US20120295292A1, “Detecting Protein Arginine Deiminase (PAD) Activity in Human Tissues and Sera” (University of South Carolina, priority 2011, published 2012)

Tested on: PAD
Experiment: PAD activity in serum of mice with DSS-induced colitis (BAEE substrate, COLDER citrulline detection)
Format: in vivo
Conditions: serum of mice given 2% DSS for 1 week; Cl-amidine treated vs no treatment; p>0.005 as printed; FIG. 2A
Experimental: A mouse model of colitis was used to develop a method for detecting disease incidence and disease severity by measuring the PAD activity present in serum. In this model, mice were […] or orally administered 2% dextran sulfate sodium (DSS) for 1 week to induce colitis. This model induced moderate to severe colon inflammation, shortening of the colon, and ulcer formation. The efficacy was tested of the PAD inhibitor, Cl-amidine, to determine if PAD activity was diminished in a group of Cl-amidine treated mice versus a group receiving no treatment with the PAD inhibitor. As a control, mice were given water without 2% DSS.
To determine PAD activity levels within the mice, serum samples were collected, then resuspended in Homogenization Buffer (50 mM HEPES pH 7.6, 10% glycerol, 1% NP-40, 1 mM PMSF, and 2 mM DTT) and homogenized using a glass dounce homogenizer. Serum samples were then centrifuged at 10,600 g for 20 min to remove cellular debris. The protein concentration was measured using the Lowry assay. PAD activity was determined by incubating serum samples in a Reaction Buffer (100 mM 4-(2-hydroxyethyl)-1-piperazineethanesulfonic acid (“HEPES”) pH 7.6, 500 mM NaCl, […] (“DTT”), 100 mM CaCl2, and 100 mM N-benzoyl-L-arginine ethyl ester (“BAEE”)) as substrate for the PAD. Incubation was carried out for 2 h at 37° C. in duplicate before freezing in liquid nitrogen. […]

NC(=O)[C@H](CCCN=C(N)CCl)NC(=O)c1ccccc1 [Cl-amidine]
decrease in PAD activity as compared to the no treatment mice: greater than 2.3 fold
